The results in this text go back to patent publication US12551418B2, “Cosmetic containing ultraviolet wavelength converting substance and medicinal agent” (Shiseido Company, Ltd., priority 2019, dated 2026).

Assay [1] concerns Human dermal fibroblasts. The assay is described as follows: Restoration of cell activity decreased by UV irradiation (Example 3). It is filed as cell-based. As to conditions: cells pre-irradiated 400 mJ/cm^2 without substance, then UV 0-200 mJ/cm^2 through 0.4% or 2% C-phycocyanin. The protocol:
(§1) A cell sample was prepared as follows: • 1. Human dermal fibroblasts and human skin keratinocytes purchased from Kurabo Industries Ltd. were used. A cell suspension (1 mL) stored in liquid nitrogen was thawed in a water bath (37° C.) to an extent that small ice pellets remained, and then diluted with 9 mL of warm medium. • 2. The diluted suspension was mixed gently and then transferred to a T75 flask and incubated overnight at 37° C. • 3. The next day, the medium was replaced with 10 mL of fresh medium. • 4. The medium was replaced periodically (once every 2 days for fibroblasts and once every 2 to 3 days for keratinocytes) and cell proliferation was continued. Meanwhile, the cells were observed using a microscope, and it was confirmed that the cells grew in the correct form. • 5. After the cells reached about 80% confluence, the cells were passaged. The cells were passaged by washing the cells once with 10 mL of warm PBS, adding 5 mL of warm trypsin to a T75 flask, covering the bottom of the flask with a trypsin solution, followed by aspirating at room temperature for 1 minute. • 6. The flask was allowed to stand in an oven at 37° C. for (maximum) 2 minutes for fibroblasts and (maximum) 7 minutes for keratinocytes. The cells were observed using a microscope and confirmed to be small and oval. • 7. Thereafter, the side of the T75 flask was lightly tapped to release the cells. […]

Assay [2] deals with Human dermal fibroblasts. The assay is described as follows: Influence of C-phycocyanin concentration and UV intensity on cell activity (Example 2). It counts as cell-based. To be noted: UV 0-100 mJ/cm^2. The method, then:
as §1

Consider C-phycocyanin, for which the “cell activity (relative fluorescence intensity, AlamarBlue)” value is “cell activity was recovered” in assay [1]; “the decrease in cell activity was inhibited” in assay [2] (0.4% C-phycocyanin solution plate); “the cell activity was even enhanced” in assay [2] (2% C-phycocyanin solution plate, compared to no UV irradiation).
